This note sets out measurements from ChEMBL document CHEMBL6134785, “New ATP-competitive inhibitors of E. coli GyrB obtained from the mapping of the hydrophobic floor at the binding site: synthesis and biological evaluation” (RSC Med Chem, 2024).

The target of the assay is DNA gyrase (Escherichia coli, UniProt P0AES4+P0AES6). Kind of assay: Inhibition of Escherichia coli DNA gyrase supercoiling activity incubated for 30 mins in presence of spermidine/ATP by fluorescence based analysis. The assay is classed as protein-complex assay.

As for `O=C(O)C(=O)Nc1ccc2nc(N(Cc3cccc(C(=O)O)c3)C(=O)c3cc(Br)c(Br)[nH]3)sc2c1`, the half-inhibitory concentration (IC50) (as a rule, the concentration at which inhibition is half-maximal) came out at 0.096 µM.

`O=C(O)C(=O)Nc1ccc2c(c1)s/c(=N\C(=O)c1cc(Br)c(Br)[nH]1)n2Cc1ccccc1`: the IC50 worked out at 0.134 µM.

For `O=C(O)C(=O)Nc1ccc2nc(N(Cc3ccccc3)C(=O)c3cc(Br)c(Br)[nH]3)sc2c1`, the IC50 turned out to be 0.019 µM.
